The subject of the assay is NHEF. Briefly: Cell proliferation on coated plates, viable cell count by trypan blue exclusion. The format is cell-based, human. To be noted: peptide P4 20 μg/12-well plate; 1-4 days; compared with PS-coated plate. The source says:
Normal human […] (NHEF) were taken from foreskin tissue of healthy 1- to 3-year-old people, and washed three times with calcium- and magnesium-free Hanks balanced salt solution containing 3× antibiotics (CMF-HBSS; GibcoBRL), and prepared by explant culture. When cell density was about 80%, NHEFs were divided by the ratio of 1:3 and cultured until cell density reached about 80%. […] were subcultured 4 times the same way as the above and used.
Polystyrene (PS), BSA (bovine serum albumin) and synthetic peptide P4 were coated on […]. NHEK (PD 13.0; 2×10^4 cells/12-well plate) and NHEF (passage number 4) cultures were added to the 12-well plate coated with the polystyrene (PS), BSA (1%) and synthetic peptide P4 (20 μg/12-well plate), and cultured for 1, 2, 3, or 4 days. Viable cells were counted by trypan blue exclusion in a hemocytometer. Data are expressed as mean ±SD (n=4).

As to PPFLMLLKGSTR [peptide P4], the “increase in the number of NHEFs according to cell proliferation” value is “similar”.

For the origin of these results see US7517654B2, “Peptide and a derivative thereof promoting cell adhesion and spreading” (Seoul National University Industry Foundation, priority 2004, dated 2009).
